Measured values published in PubChem BioAssay AID248 (DTP/NCI, 2004).
Several values for one entry are separate records, joined by “and”; a condition that tells them apart may be missing. Identical values can stand only once. Inconclusive results and toxic doses are left out. Cut-off read from the data, not from the text of the source: active = T/C of 150% or more; inactive = T/C below 125%.

System: L1210 leukemia ip in BDF1 mice, survival T/C
Assay: NCI In Vivo Anticancer Drug Screen. Data for tumor model L1210 Leukemia (intraperitoneal) in B6D2F1 (BDF1) mice
Settings: endpoint: mean survival time, higher = longer survival
Summary of the method: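 Antitumor effect is assessed in tumor-bearing animals. Survival in the compound arm is compared with a vehicle-dosed control arm and expressed as their quotient.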

[1] = dose: 100.0 mg/kg/injection, schedule: Q01DX009 (ip), vehicle: saline with Tween-80
[2] = dose: 100.0 mg/kg/injection, schedule: Q04DX003 (ip), vehicle: saline with Tween-80
[3] = dose: 200.0 mg/kg/injection, schedule: Q01DX009 (ip), vehicle: saline with Tween-80
[4] = dose: 200.0 mg/kg/injection, schedule: Q04DX003 (ip), vehicle: saline with Tween-80
[5] = dose: 400.0 mg/kg/injection, schedule: Q04DX003 (ip), vehicle: saline with Tween-80
[6] = dose: 50.0 mg/kg/injection, schedule: Q01DX009 (ip), vehicle: Klucel (hydroxypropylcellulose) (HPC)
[7] = dose: 50.0 mg/kg/injection, schedule: Q04DX003 (ip), vehicle: saline with Tween-80
[8] = dose: 100.0 mg/kg/injection, schedule: Q04DX003 (ip), vehicle: Klucel (hydroxypropylcellulose) (HPC)
[9] = dose: 200.0 mg/kg/injection, schedule: Q04DX003 (ip), vehicle: Klucel (hydroxypropylcellulose) (HPC)
[10] = dose: 100.0 mg/kg/injection, schedule: Q01DX001 (ip), vehicle: saline
[11] = dose: 200.0 mg/kg/injection, schedule: Q01DX001 (ip), vehicle: saline
[12] = dose: 100.0 mg/kg/injection, schedule: Q01DX001 (ip), vehicle: carboxymethylcellulose (CMC)
[13] = dose: 200.0 mg/kg/injection, schedule: Q01DX001 (ip), vehicle: carboxymethylcellulose (CMC)
[14] = dose: 400.0 mg/kg/injection, schedule: Q01DX001 (ip), vehicle: carboxymethylcellulose (CMC)
[15] = dose: 400.0 mg/kg/injection, schedule: Q01DX001 (ip), vehicle: saline
[16] = dose: 100.0 mg/kg/injection, schedule: Q01DX009 (ip), vehicle: Klucel (hydroxypropylcellulose) (HPC)
[17] = dose: 50.0 mg/kg/injection, schedule: Q01DX009 (ip), vehicle: saline with Tween-80

Measured: T/C

N=C(OC1CCCCC1)N1CCCC1
inactive: dose: 22.0 mg/kg/injection, schedule: Q01DX Z (ip), vehicle: saline 98 % of control | dose: 33.0 mg/kg/injection, schedule: Q01DX Z (ip), vehicle: saline 98 % of control | dose: 50.0 mg/kg/injection, schedule: Q01DX Z (ip), vehicle: saline 98 % of control

Cc1cc2oc(C)[n+](Cc3ccccc3)c2cc1C
inactive: [1] 105 % of control and 86 % of control | [2] 97 % of control | [3] 96 % of control and 110 % of control | [4] 95 % of control | [5] 95 % of control

O=C(O)C1CCC=CCC1
inactive: dose: 50.0 mg/kg/injection, schedule: Q01DX009 (ip), vehicle: other 91 % of control | dose: 100.0 mg/kg/injection, schedule: Q01DX009 (ip), vehicle: other 96 % of control | dose: 200.0 mg/kg/injection, schedule: Q01DX009 (ip), vehicle: other 98 % of control

O=Cc1cn(C2CC(O)C(CO)O2)c(=O)[nH]c1=O (stereo unspecified)
inactive: [6] 117 % of control | [7] 103 % of control | dose: 100.0 mg/kg/injection, schedule: Q01DX005 (ip), vehicle: saline 108 % of control | [2] 99 % of control | dose: 200.0 mg/kg/injection, schedule: Q01DX005 (ip), vehicle: saline 110 % of control | [4] 102 % of control | dose: 400.0 mg/kg/injection, schedule: Q01DX009 (ip), vehicle: Klucel (hydroxypropylcellulose) (HPC) 114 % of control | [5] 96 % of control

CCCCNC(c1ccccc1)C(Cl)c1ccccc1 (stereo unspecified)
inactive: [8] 97 % of control | [9] 97 % of control

O=C1NCC2(CCCCCC2)O1
inactive: [10] 104 % of control | [11] 108 % of control

CC(=O)OCC(=O)[C@@]1(O)CC[C@H]2[C@@H]3CCC4=CC(=O)CC[C@]4(C)C3=CC[C@@]21C
inactive: dose: 12.5 mg/kg/injection, schedule: Q04DX003 (ip), vehicle: saline with Tween-80 95 % of control | dose: 25.0 mg/kg/injection, schedule: Q04DX003 (ip), vehicle: saline with Tween-80 93 % of control | [7] 90 % of control

CCN(CC)c1nc2ccccc2o1
inactive: [12] 102 % of control | [13] 91 % of control | [14] 91 % of control

CC(=O)OC1C(=O)C(O)C(C)OC1O[C@@H]1C[C@@]2(C)[C@@H]3CC=C4[C@@H](C[C@H](O)C(=O)C4(C)C)[C@]3(C)C(=O)C[C@]2(C)[C@H]1[C@@](C)(O)C(=O)/C=C/C(C)(C)O (stereo partly specified)
inactive: dose: 0.33 mg/kg/injection, schedule: Q01DX009 (ip), vehicle: saline 113 % of control | dose: 0.6 mg/kg/injection, schedule: Q01DX009 (ip), vehicle: saline 106 % of control | dose: 0.67 mg/kg/injection, schedule: Q01DX009 (ip), vehicle: saline 112 % of control | dose: 1.0 mg/kg/injection, schedule: Q01DX009 (ip), vehicle: saline 108 % of control | dose: 1.25 mg/kg/injection, schedule: Q01DX009 (ip), vehicle: saline 120 % of control | dose: 1.5 mg/kg/injection, schedule: Q01DX009 (ip), vehicle: saline 101 % of control | dose: 2.5 mg/kg/injection, schedule: Q01DX009 (ip), vehicle: saline 97 % of control

O=C(O)C1C(=O)Oc2c(cccc2[N+](=O)[O-])C1O (stereo unspecified)
inactive: [12] 94 % of control | [13] 92 % of control | [14] 92 % of control

O=C(COc1ccc(Cl)cc1C(=O)O)NCc1ccc(NC(=O)Nc2cccc(S(=O)(=O)F)c2)cc1
inactive: [10] 96 % of control | [11] 93 % of control | [15] 104 % of control

O=c1[nH]c(Cc2ccccc2)c(N=Nc2ccccc2)c(=O)[nH]1
inactive: dose: 25.0 mg/kg/injection, schedule: Q01DX001 (ip), vehicle: saline with Tween-80 93 % of control | dose: 50.0 mg/kg/injection, schedule: Q01DX001 (ip), vehicle: saline with Tween-80 93 % of control | dose: 100.0 mg/kg/injection, schedule: Q01DX001 (ip), vehicle: saline with Tween-80 93 % of control

CC12C=CC3(CCC4C(C)(C)C(O[N+](=O)[O-])C(=O)CC4(C)C3CC1=O)C2 (stereo unspecified)
inactive: dose: 75.0 mg/kg/injection, schedule: Q01DX009 (ip), vehicle: Klucel (hydroxypropylcellulose) (HPC) 108 % of control | dose: 100.0 mg/kg/injection, schedule: Q01DX001 (ip), vehicle: Klucel (hydroxypropylcellulose) (HPC) 92 % of control | dose: 150.0 mg/kg/injection, schedule: Q01DX009 (ip), vehicle: Klucel (hydroxypropylcellulose) (HPC) 100 % of control | dose: 200.0 mg/kg/injection, schedule: Q01DX001 (ip), vehicle: Klucel (hydroxypropylcellulose) (HPC) 95 % of control | dose: 300.0 mg/kg/injection, schedule: Q01DX009 (ip), vehicle: Klucel (hydroxypropylcellulose) (HPC) 98 % of control | dose: 400.0 mg/kg/injection, schedule: Q01DX001 (ip), vehicle: Klucel (hydroxypropylcellulose) (HPC) 88 % of control

CC1CC[N-]CC1.CC1CC[N-]CC1.CC1CC[N-]CC1.CC1CC[N-]CC1.[Pt+4]
inactive: dose: 0.39 mg/kg/injection, schedule: Q01DX009 (ip), vehicle: saline 100 % of control | dose: 0.39 mg/kg/injection, schedule: Q04DX003 (ip), vehicle: saline 97 % of control | dose: 0.78 mg/kg/injection, schedule: Q01DX009 (ip), vehicle: saline 92 % of control | dose: 0.78 mg/kg/injection, schedule: Q04DX003 (ip), vehicle: saline 100 % of control | dose: 1.56 mg/kg/injection, schedule: Q01DX009 (ip), vehicle: saline 94 % of control | dose: 1.56 mg/kg/injection, schedule: Q04DX003 (ip), vehicle: saline 102 % of control | dose: 3.12 mg/kg/injection, schedule: Q04DX003 (ip), vehicle: saline 96 % of control

Nc1cc(C(=O)O)ccc1Cl
inactive: [10] 105 % of control | [11] 95 % of control | [15] 95 % of control

SCc1ccccc1
inactive: [10] 91 % of control | [11] 111 % of control | [15] 105 % of control

COc1cccc(/C=C/c2cnc3ccccc3n2)c1OC
inactive: [6] 104 % of control | [16] 92 % of control

C/C(=C\c1ccc2c(c1)OCO2)[N+](=O)[O-]
inactive: dose: 25.0 mg/kg/injection, schedule: Q01DX009 (ip), vehicle: Klucel (hydroxypropylcellulose) (HPC) 97 % of control | [6] 89 % of control | [17] 108 % of control | dose: 50.0 mg/kg/injection, schedule: Q04DX003 (ip), vehicle: Klucel (hydroxypropylcellulose) (HPC) 94 % of control | [16] 98 % of control and 87 % of control | [1] 87 % of control | [8] 103 % of control | [9] 100 % of control | dose: 400.0 mg/kg/injection, schedule: Q04DX003 (ip), vehicle: Klucel (hydroxypropylcellulose) (HPC) 97 % of control

CCOC(=O)CC1c2nc3ccccc3cc2CN1C(=O)CCOCc1ccccc1 (stereo unspecified)
inactive: dose: 10.0 mg/kg/injection, schedule: Q04DX003 (ip), vehicle: alcohol 92 % of control | dose: 20.0 mg/kg/injection, schedule: Q04DX003 (ip), vehicle: alcohol 92 % of control | dose: 40.0 mg/kg/injection, schedule: Q04DX003 (ip), vehicle: alcohol 100 % of control | dose: 80.0 mg/kg/injection, schedule: Q04DX003 (ip), vehicle: alcohol 96 % of control | dose: 160.0 mg/kg/injection, schedule: Q04DX003 (ip), vehicle: alcohol 89 % of control

Cc1ccc(NC(=O)CC#N)c(C)c1
inactive: [17] 95 % of control | [1] 113 % of control | dose: 100.0 mg/kg/injection, schedule: Q04DX002 (ip), vehicle: saline with Tween-80 101 % of control | [3] 113 % of control | dose: 200.0 mg/kg/injection, schedule: Q04DX002 (ip), vehicle: saline with Tween-80 101 % of control

C/C=C/C=C\COC(=O)C(C)C
inactive: dose: 100.0 mg/kg/injection, schedule: Q04DX002 (ip), vehicle: saline 103 % of control | dose: 200.0 mg/kg/injection, schedule: Q04DX002 (ip), vehicle: saline 96 % of control | dose: 400.0 mg/kg/injection, schedule: Q04DX002 (ip), vehicle: saline 114 % of control

CCOC(=O)C(N)CSCc1ccccc1 (stereo unspecified)
inactive: [1] 97 % of control | [3] 92 % of control | dose: 400.0 mg/kg/injection, schedule: Q01DX009 (ip), vehicle: saline with Tween-80 97 % of control
